What was measured:
Assay in all cases: KINOMEscan binding assay
[1] = molecular target: T1, DLK (Homo sapiens, UniProt Q12852)
T1 construct: purchased DiscoveRx KINOMEscan
Summary of the method: (§1)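 i-CDK9 at 1 and 10 µM; competition binding against an immobilized active-site probe; >400-kinase panel.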

[2] = molecular target: T2, FGFR3(G697C) (Homo sapiens, UniProt P22607, G697C); conditions: read-out: % Retention on Solid Support
T2 construct: purchased DiscoveRx KINOMEscan
Summary of the method: as §1

[3] = molecular target: T3, PAK4 (Homo sapiens, UniProt O96013); conditions: read-out: % Retention on Solid Support
T3 construct: purchased DiscoveRx KINOMEscan
Summary of the method: as §1

[4] = molecular target: T4, LCK (Homo sapiens, UniProt P06239); conditions: read-out: % Retention on Solid Support
T4 construct: purchased DiscoveRx KINOMEscan
Summary of the method: as §1

[5] = molecular target: T5, ACVR2A (Homo sapiens, UniProt P27037); conditions: read-out: % Retention on Solid Support
T5 construct: purchased DiscoveRx KINOMEscan
Summary of the method: as §1

[6] = molecular target: T6, MLCK (Homo sapiens, UniProt Q32MK0); conditions: read-out: % Retention on Solid Support
T6 construct: purchased DiscoveRx KINOMEscan
Summary of the method: as §1

[7] = molecular target: T7, EGFR(T790M) (Homo sapiens, UniProt P00533, T790M); conditions: 1 µM i-CDK9
T7 construct: purchased DiscoveRx KINOMEscan
Summary of the method: as §1

[8] = molecular target: T8, TLK2 (Homo sapiens, UniProt Q86UE8); conditions: read-out: % Retention on Solid Support
T8 construct: purchased DiscoveRx KINOMEscan
Summary of the method: as §1

[9] = molecular target: T9, TIE1 (Homo sapiens, UniProt P35590); conditions: read-out: % Retention on Solid Support
T9 construct: purchased DiscoveRx KINOMEscan
Summary of the method: as §1

[10] = molecular target: T10, SRMS (Homo sapiens, UniProt Q9H3Y6); conditions: read-out: % Retention on Solid Support
T10 construct: purchased DiscoveRx KINOMEscan
Summary of the method: as §1

[11] = molecular target: T11, MST2 (Homo sapiens, UniProt Q13188); conditions: read-out: % Retention on Solid Support
T11 construct: purchased DiscoveRx KINOMEscan
Summary of the method: as §1

[12] = molecular target: T12, PIK3CA(H1047L) (Homo sapiens, UniProt P42336, H1047L); conditions: read-out: % Retention on Solid Support
T12 construct: purchased DiscoveRx KINOMEscan
Summary of the method: as §1

[13] = molecular target: T13, AAK1 (Homo sapiens, UniProt Q2M2I8); conditions: read-out: % Retention on Solid Support
T13 construct: purchased DiscoveRx KINOMEscan
Summary of the method: as §1

[14] = molecular target: T14, GSK3A (Homo sapiens, UniProt P49840); conditions: read-out: % Retention on Solid Support
T14 construct: purchased DiscoveRx KINOMEscan
Summary of the method: as §1

[15] = molecular target: T15, ICK (Homo sapiens, UniProt Q9UPZ9); conditions: read-out: % Retention on Solid Support
T15 construct: purchased DiscoveRx KINOMEscan
Summary of the method: as §1

[16] = molecular target: T16, TNK2 (Homo sapiens, UniProt Q07912); conditions: read-out: % Retention on Solid Support
T16 construct: purchased DiscoveRx KINOMEscan
Summary of the method: as §1

[17] = molecular target: T17, STK36 (Homo sapiens, UniProt Q9NRP7); conditions: read-out: % Retention on Solid Support
T17 construct: purchased DiscoveRx KINOMEscan
Summary of the method: as §1

[18] = molecular target: T18, ERK8 (Homo sapiens, UniProt Q8TD08); conditions: read-out: % Retention on Solid Support
T18 construct: purchased DiscoveRx KINOMEscan
Summary of the method: as §1

[19] = molecular target: T19, MLK3 (Homo sapiens, UniProt Q16584)
T19 construct: purchased DiscoveRx KINOMEscan
Summary of the method: as §1

[20] = molecular target: T20, EGFR(L747-S752del, P753S) (Homo sapiens, UniProt P00533, DEL747-752/P753S)
T20 construct: purchased DiscoveRx KINOMEscan
Summary of the method: as §1

[21] = molecular target: T21, ERK1 (Homo sapiens, UniProt P27361); conditions: read-out: % Retention on Solid Support
T21 construct: purchased DiscoveRx KINOMEscan
Summary of the method: as §1

[22] = molecular target: T22, BMPR2 (Homo sapiens, UniProt Q13873)
T22 construct: purchased DiscoveRx KINOMEscan
Summary of the method: as §1

[23] = molecular target: T23, PIK3CG (Homo sapiens, UniProt P48736); conditions: read-out: % Retention on Solid Support
T23 construct: purchased DiscoveRx KINOMEscan
Summary of the method: as §1

[24] = molecular target: T24, SRPK2 (Homo sapiens, UniProt P78362); conditions: read-out: % Retention on Solid Support
T24 construct: purchased DiscoveRx KINOMEscan
Summary of the method: as §1

[25] = molecular target: T25, DAPK3 (Homo sapiens, UniProt O43293); conditions: read-out: % Retention on Solid Support
T25 construct: purchased DiscoveRx KINOMEscan
Summary of the method: as §1

[26] = molecular target: T26, CDK3 (Homo sapiens, UniProt Q00526)
T26 construct: purchased DiscoveRx KINOMEscan
Summary of the method: as §1

[27] = molecular target: T27, PIP5K2C (Homo sapiens, UniProt Q8TBX8); conditions: 1 µM i-CDK9; read-out: % Retention on Solid Support
T27 construct: purchased DiscoveRx KINOMEscan
Summary of the method: as §1

[28] = molecular target: T28, EGFR(G719C) (Homo sapiens, UniProt P00533, G719C)
T28 construct: purchased DiscoveRx KINOMEscan
Summary of the method: as §1

[29] = molecular target: T29, ABL1(F317I)-nonphosphorylated (Homo sapiens, UniProt P00519, F317I); conditions: read-out: % Retention on Solid Support
T29 construct: purchased DiscoveRx KINOMEscan
Summary of the method: as §1

T5 sequence (P27037 20-513): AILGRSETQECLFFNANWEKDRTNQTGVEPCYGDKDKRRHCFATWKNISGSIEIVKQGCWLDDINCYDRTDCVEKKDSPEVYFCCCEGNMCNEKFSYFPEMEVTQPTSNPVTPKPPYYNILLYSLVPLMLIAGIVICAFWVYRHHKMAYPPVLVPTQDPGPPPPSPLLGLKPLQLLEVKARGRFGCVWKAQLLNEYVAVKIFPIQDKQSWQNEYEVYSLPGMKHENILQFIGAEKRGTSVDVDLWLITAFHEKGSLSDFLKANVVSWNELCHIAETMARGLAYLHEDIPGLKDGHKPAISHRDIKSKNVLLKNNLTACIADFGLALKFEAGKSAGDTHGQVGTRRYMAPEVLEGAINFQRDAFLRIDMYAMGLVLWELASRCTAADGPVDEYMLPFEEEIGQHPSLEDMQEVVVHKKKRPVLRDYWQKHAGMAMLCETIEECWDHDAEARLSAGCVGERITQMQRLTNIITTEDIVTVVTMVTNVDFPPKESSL
T19 sequence (Q16584 whole entry): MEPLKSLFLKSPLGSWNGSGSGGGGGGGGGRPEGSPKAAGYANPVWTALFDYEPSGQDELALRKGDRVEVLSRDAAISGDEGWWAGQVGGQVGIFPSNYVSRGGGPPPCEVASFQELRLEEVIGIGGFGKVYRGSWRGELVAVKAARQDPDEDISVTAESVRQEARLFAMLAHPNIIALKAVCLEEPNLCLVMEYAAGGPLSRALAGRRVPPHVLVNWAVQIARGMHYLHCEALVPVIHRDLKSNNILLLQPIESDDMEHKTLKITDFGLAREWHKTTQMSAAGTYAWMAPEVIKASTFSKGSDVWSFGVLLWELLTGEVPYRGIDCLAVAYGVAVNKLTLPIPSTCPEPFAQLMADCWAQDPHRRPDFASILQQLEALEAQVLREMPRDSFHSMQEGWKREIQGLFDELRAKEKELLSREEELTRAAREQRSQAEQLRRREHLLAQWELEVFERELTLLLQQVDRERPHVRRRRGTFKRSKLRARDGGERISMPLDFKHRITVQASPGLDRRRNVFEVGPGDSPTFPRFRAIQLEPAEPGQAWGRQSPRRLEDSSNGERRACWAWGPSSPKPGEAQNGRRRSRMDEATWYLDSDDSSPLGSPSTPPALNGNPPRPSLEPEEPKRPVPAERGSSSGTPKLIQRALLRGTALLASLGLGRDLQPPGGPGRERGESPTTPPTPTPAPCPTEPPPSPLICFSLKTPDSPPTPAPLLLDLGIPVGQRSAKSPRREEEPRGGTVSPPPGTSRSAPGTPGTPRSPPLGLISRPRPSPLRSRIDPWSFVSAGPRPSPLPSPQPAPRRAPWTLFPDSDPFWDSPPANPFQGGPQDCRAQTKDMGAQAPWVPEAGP
T2 sequence (P22607 23-806 G697C): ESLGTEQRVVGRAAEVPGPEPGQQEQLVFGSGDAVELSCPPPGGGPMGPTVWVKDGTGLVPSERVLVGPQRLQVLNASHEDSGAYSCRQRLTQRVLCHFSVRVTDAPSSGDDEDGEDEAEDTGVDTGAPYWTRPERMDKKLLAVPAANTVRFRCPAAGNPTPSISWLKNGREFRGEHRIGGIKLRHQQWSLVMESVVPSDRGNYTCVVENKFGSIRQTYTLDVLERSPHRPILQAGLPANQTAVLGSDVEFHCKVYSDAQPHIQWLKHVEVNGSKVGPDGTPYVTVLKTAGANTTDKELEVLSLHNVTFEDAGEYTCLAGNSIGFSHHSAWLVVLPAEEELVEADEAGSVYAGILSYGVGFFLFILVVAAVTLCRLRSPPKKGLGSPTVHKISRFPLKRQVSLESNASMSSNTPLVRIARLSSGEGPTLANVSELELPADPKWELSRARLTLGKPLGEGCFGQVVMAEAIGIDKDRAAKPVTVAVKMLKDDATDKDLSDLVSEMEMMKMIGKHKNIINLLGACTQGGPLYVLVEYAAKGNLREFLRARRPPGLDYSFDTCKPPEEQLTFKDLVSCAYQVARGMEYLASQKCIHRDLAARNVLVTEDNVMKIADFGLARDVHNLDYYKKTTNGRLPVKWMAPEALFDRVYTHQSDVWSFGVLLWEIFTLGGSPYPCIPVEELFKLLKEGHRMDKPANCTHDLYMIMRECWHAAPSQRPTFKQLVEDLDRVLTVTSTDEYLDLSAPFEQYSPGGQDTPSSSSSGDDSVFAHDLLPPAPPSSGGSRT
T12 sequence (P42336 whole entry H1047L): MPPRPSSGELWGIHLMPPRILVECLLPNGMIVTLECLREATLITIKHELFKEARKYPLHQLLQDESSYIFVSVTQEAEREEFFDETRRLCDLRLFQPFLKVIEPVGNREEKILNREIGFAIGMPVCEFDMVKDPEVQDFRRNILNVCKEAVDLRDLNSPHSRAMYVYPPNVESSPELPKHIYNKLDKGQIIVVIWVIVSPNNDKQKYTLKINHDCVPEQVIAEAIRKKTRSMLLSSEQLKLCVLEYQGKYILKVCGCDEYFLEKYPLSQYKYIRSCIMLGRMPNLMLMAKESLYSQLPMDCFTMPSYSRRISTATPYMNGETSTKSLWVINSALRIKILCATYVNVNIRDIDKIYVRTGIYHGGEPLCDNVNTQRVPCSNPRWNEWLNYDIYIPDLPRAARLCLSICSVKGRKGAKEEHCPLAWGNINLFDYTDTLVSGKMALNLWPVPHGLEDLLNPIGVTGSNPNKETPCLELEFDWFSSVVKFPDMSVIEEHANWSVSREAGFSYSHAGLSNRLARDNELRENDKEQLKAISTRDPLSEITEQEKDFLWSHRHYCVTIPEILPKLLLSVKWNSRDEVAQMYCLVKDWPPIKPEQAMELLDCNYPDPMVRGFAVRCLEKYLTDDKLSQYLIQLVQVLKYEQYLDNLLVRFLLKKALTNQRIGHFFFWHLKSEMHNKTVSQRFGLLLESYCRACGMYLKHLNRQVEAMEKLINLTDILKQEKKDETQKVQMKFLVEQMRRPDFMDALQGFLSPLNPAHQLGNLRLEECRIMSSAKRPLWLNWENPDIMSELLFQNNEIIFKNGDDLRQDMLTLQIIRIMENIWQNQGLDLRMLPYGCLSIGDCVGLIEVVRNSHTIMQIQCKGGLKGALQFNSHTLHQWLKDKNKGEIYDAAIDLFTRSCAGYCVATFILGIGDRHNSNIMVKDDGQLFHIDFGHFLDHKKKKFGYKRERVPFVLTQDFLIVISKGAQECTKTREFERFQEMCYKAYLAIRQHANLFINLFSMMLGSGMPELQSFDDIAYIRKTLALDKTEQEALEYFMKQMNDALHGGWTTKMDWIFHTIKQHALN
T29 sequence (P00519 whole entry F317I): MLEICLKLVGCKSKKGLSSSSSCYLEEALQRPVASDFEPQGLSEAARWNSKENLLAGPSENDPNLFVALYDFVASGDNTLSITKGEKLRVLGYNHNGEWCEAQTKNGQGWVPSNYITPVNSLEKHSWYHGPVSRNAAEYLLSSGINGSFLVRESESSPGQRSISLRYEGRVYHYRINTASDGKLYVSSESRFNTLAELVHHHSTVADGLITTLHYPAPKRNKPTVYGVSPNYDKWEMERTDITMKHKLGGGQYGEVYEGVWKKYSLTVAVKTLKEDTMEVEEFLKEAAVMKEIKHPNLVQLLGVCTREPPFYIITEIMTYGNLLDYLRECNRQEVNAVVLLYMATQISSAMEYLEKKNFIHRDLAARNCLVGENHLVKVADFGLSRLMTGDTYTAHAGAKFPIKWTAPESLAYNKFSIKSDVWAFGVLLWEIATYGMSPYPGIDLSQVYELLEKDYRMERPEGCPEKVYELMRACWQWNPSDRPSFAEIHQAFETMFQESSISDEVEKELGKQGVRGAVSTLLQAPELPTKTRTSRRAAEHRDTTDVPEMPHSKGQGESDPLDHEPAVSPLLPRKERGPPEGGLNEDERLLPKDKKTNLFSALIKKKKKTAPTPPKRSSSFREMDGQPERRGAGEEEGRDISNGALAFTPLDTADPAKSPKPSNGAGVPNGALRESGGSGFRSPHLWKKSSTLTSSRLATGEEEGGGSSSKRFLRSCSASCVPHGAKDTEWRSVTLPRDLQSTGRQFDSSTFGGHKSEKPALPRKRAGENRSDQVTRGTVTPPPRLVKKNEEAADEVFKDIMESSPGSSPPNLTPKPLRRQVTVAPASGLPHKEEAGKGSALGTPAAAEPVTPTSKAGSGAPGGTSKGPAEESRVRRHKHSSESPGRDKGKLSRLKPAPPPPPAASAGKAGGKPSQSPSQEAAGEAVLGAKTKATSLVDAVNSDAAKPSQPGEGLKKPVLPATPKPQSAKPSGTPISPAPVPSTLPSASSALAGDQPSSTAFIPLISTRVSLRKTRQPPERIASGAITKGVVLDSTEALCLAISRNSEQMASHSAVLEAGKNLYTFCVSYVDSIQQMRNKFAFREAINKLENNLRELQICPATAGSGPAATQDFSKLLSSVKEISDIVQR
T24 sequence (P78362 whole entry): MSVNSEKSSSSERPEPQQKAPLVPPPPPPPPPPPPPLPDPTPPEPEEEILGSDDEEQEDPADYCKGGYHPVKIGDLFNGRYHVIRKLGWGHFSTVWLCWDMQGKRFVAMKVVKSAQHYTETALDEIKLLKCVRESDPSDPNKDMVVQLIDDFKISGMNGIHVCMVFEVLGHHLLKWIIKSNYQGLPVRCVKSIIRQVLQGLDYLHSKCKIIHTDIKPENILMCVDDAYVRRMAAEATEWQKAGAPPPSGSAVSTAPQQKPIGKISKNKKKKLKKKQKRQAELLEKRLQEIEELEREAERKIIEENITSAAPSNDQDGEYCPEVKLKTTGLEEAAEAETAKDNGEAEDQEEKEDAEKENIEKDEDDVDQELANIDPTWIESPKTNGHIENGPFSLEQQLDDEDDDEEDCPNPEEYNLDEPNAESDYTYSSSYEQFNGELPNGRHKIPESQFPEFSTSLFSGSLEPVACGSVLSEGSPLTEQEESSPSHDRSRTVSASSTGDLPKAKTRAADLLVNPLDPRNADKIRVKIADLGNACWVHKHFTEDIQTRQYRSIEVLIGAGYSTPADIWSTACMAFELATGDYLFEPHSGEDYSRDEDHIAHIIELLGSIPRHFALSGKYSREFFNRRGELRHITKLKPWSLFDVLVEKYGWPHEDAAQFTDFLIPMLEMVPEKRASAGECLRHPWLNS

## N[C@H]1CC[C@H](Nc2cc(-c3cccc(NCc4cccc(F)c4)n3)c(Cl)cn2)CC1 [i-CDK9, N2′-(trans-4-aminocyclohexyl)-5′-chloro-N6-(3-fluorobenzyl)-2,4′-bipyridine-2′,6-diamine]
[1]; 1 µM i-CDK9
  % Retention on Solid Support: 100%
[1]; 10 µM i-CDK9
  % Retention on Solid Support: 71%
[2]; 1 µM i-CDK9
  remaining binding at 1 µM: 96%
[2]; 10 µM i-CDK9
  remaining binding at 10 µM: 100%
[3]; 1 µM i-CDK9
  remaining binding at 1 µM: 100%
[3]; 10 µM i-CDK9
  remaining binding at 10 µM: 100%
[4]; 1 µM i-CDK9
  remaining binding at 1 µM: 100%
[4]; 10 µM i-CDK9
  remaining binding at 10 µM: 100%
[5]; 1 µM i-CDK9
  remaining binding at 1 µM: 98%
[5]; 10 µM i-CDK9
  remaining binding at 10 µM: 91%
[6]; 1 µM i-CDK9
  remaining binding at 1 µM: 100%
[6]; 10 µM i-CDK9
  remaining binding at 10 µM: 90%
[7]
  % Retention on Solid Support: 100%
[8]; 1 µM i-CDK9
  remaining binding at 1 µM: 100%
[8]; 10 µM i-CDK9
  remaining binding at 10 µM: 100%
[9]; 1 µM i-CDK9
  remaining binding at 1 µM: 85%
[9]; 10 µM i-CDK9
  remaining binding at 10 µM: 100%
[10]; 1 µM i-CDK9
  remaining binding at 1 µM: 99%
[10]; 10 µM i-CDK9
  remaining binding at 10 µM: 80%
[11]; 1 µM i-CDK9
  remaining binding at 1 µM: 72%
[11]; 10 µM i-CDK9
  remaining binding at 10 µM: 100%
[12]; 1 µM i-CDK9
  remaining binding at 1 µM: 99%
[12]; 10 µM i-CDK9
  remaining binding at 10 µM: 100%
[13]; 1 µM i-CDK9
  remaining binding at 1 µM: 100%
[13]; 10 µM i-CDK9
  remaining binding at 10 µM: 100%
[14]; 1 µM i-CDK9
  remaining binding at 1 µM: 93%
[14]; 10 µM i-CDK9
  remaining binding at 10 µM: 8.7%
[15]; 1 µM i-CDK9
  remaining binding at 1 µM: 85%
[15]; 10 µM i-CDK9
  remaining binding at 10 µM: 3%
[16]; 1 µM i-CDK9
  remaining binding at 1 µM: 88%
[16]; 10 µM i-CDK9
  remaining binding at 10 µM: 99%
[17]; 1 µM i-CDK9
  remaining binding at 1 µM: 92%
[17]; 10 µM i-CDK9
  remaining binding at 10 µM: 68%
[18]; 1 µM i-CDK9
  remaining binding at 1 µM: 85%
[18]; 10 µM i-CDK9
  remaining binding at 10 µM: 20%
[19]; 1 µM i-CDK9
  % Retention on Solid Support: 85%
[19]; 10 µM i-CDK9
  % Retention on Solid Support: 100%
[20]; 1 µM i-CDK9
  % Retention on Solid Support: 46%
[20]; 10 µM i-CDK9
  % Retention on Solid Support: 65%
[21]; 1 µM i-CDK9
  remaining binding at 1 µM: 100%
[21]; 10 µM i-CDK9
  remaining binding at 10 µM: 93%
[22]; 1 µM i-CDK9
  % Retention on Solid Support: 100%
[22]; 10 µM i-CDK9
  % Retention on Solid Support: 100%
[23]; 1 µM i-CDK9
  remaining binding at 1 µM: 100%
[23]; 10 µM i-CDK9
  remaining binding at 10 µM: 100%
[24]; 1 µM i-CDK9
  remaining binding at 1 µM: 57%
[24]; 10 µM i-CDK9
  remaining binding at 10 µM: 100%
[25]; 1 µM i-CDK9
  remaining binding at 1 µM: 90%
[25]; 10 µM i-CDK9
  remaining binding at 10 µM: 70%
[26]; 1 µM i-CDK9
  % Retention on Solid Support: 57%
[26]; 10 µM i-CDK9
  % Retention on Solid Support: 16%
[27]
  remaining binding at 1 µM: 100%
[28]; 1 µM i-CDK9
  % Retention on Solid Support: 86%
[28]; 10 µM i-CDK9
  % Retention on Solid Support: 46%
[29]; 1 µM i-CDK9
  remaining binding at 1 µM: 99%
[29]; 10 µM i-CDK9
  remaining binding at 10 µM: 75%
